“And” between values parts separate entries of the source, which are not always exact repeats. Equal entries are not always repeated. Inconclusive results and toxic doses are left out.
System: L1210 leukemia ip in BDF1 mice, survival T/C
Assay: NCI In Vivo Anticancer Drug Screen. Data for tumor model L1210 Leukemia (intraperitoneal) in B6D2F1 (BDF1) mice
Details: endpoint: mean survival time, higher = longer survival
Procedure, shortened: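 Transplanted-tumor mice were given test agent; controls received vehicle only. Survival readings from the two groups were divided (treated over control).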

[1] = dose: 100.0 mg/kg/injection, schedule: Q04DX002 (ip), vehicle: Klucel (hydroxypropylcellulose) (HPC)
[2] = dose: 200.0 mg/kg/injection, schedule: Q04DX002 (ip), vehicle: Klucel (hydroxypropylcellulose) (HPC)
[3] = dose: 400.0 mg/kg/injection, schedule: Q04DX002 (ip), vehicle: Klucel (hydroxypropylcellulose) (HPC)
[4] = dose: 100.0 mg/kg/injection, schedule: Q04DX003 (ip), vehicle: Klucel (hydroxypropylcellulose) (HPC)
[5] = dose: 200.0 mg/kg/injection, schedule: Q04DX003 (ip), vehicle: Klucel (hydroxypropylcellulose) (HPC)
[6] = dose: 50.0 mg/kg/injection, schedule: Q01DX009 (ip), vehicle: saline with Tween-80
[7] = dose: 100.0 mg/kg/injection, schedule: Q01DX001 (ip), vehicle: saline with Tween-80
[8] = dose: 100.0 mg/kg/injection, schedule: Q01DX009 (ip), vehicle: saline with Tween-80
[9] = dose: 100.0 mg/kg/injection, schedule: Q04DX003 (ip), vehicle: saline with Tween-80
[10] = dose: 200.0 mg/kg/injection, schedule: Q01DX001 (ip), vehicle: saline with Tween-80
[11] = dose: 200.0 mg/kg/injection, schedule: Q04DX003 (ip), vehicle: saline with Tween-80
[12] = dose: 25.0 mg/kg/injection, schedule: Q01DX009 (ip), vehicle: saline with Tween-80
[13] = dose: 100.0 mg/kg/injection, schedule: Q01DX009 (ip), vehicle: saline
[14] = dose: 200.0 mg/kg/injection, schedule: Q01DX009 (ip), vehicle: saline
[15] = dose: 200.0 mg/kg/injection, schedule: Q01DX001 (ip), vehicle: carboxymethylcellulose (CMC)
[16] = dose: 400.0 mg/kg/injection, schedule: Q01DX001 (ip), vehicle: carboxymethylcellulose (CMC)

SMILES: C(=C\CSc1ccccc1)/CSc1ccccc1
- T/C [1]: 97 % of control
- T/C [2]: 94 % of control
- T/C [3]: 97 % of control

SMILES: O=[N+]([O-])c1ccc2c(c1)n([O-])c1ccccc1[n+]2=O
- T/C (dose: 50.0 mg/kg/injection, schedule: Q04DX003 (ip), vehicle: Klucel (hydroxypropylcellulose) (HPC)): 89 % of control
- T/C (dose: 100.0 mg/kg/injection, schedule: Q01DX001 (ip), vehicle: Klucel (hydroxypropylcellulose) (HPC)): 97 % of control
- T/C [4]: 90 % of control and 92 % of control
- T/C (dose: 200.0 mg/kg/injection, schedule: Q01DX001 (ip), vehicle: Klucel (hydroxypropylcellulose) (HPC)): 95 % of control
- T/C [5]: 97 % of control and 101 % of control

SMILES: BrC1C2C=CC(C2)C1Br (stereo unspecified)
- T/C [4]: 102 % of control
- T/C [5]: 100 % of control
- T/C (dose: 400.0 mg/kg/injection, schedule: Q04DX003 (ip), vehicle: Klucel (hydroxypropylcellulose) (HPC)): 92 % of control

SMILES: O=C(O)CC1NCc2cc3ccccc3nc21 (stereo unspecified)
- T/C (dose: 10.0 mg/kg/injection, schedule: Q04DX003 (ip), vehicle: alcohol): 94 % of control
- T/C (dose: 20.0 mg/kg/injection, schedule: Q04DX003 (ip), vehicle: alcohol): 99 % of control
- T/C (dose: 40.0 mg/kg/injection, schedule: Q04DX003 (ip), vehicle: alcohol): 105 % of control
- T/C (dose: 80.0 mg/kg/injection, schedule: Q04DX003 (ip), vehicle: alcohol): 99 % of control
- T/C (dose: 160.0 mg/kg/injection, schedule: Q04DX003 (ip), vehicle: alcohol): 97 % of control

SMILES: N#COc1cccc(OCCOc2cccc(OC#N)c2)c1
- T/C [6]: 99 % of control
- T/C (dose: 50.0 mg/kg/injection, schedule: Q04DX003 (ip), vehicle: saline with Tween-80): 97 % of control
- T/C [7]: 89 % of control
- T/C [8]: 94 % of control
- T/C [9]: 90 % of control
- T/C [10]: 87 % of control
- T/C (dose: 200.0 mg/kg/injection, schedule: Q01DX009 (ip), vehicle: saline with Tween-80): 100 % of control
- T/C [11]: 87 % of control

SMILES: CCCCOc1ccc(C(=O)NN)cc1
- T/C [12]: 93 % of control
- T/C [6]: 102 % of control
- T/C [8]: 88 % of control

SMILES: Cc1c(C)c(Br)c(C)c(-c2c(O)c(Br)c(-c3c(C)c(C)c(C)c(Br)c3C)c(O)c2Br)c1C
- T/C [9]: 97 % of control
- T/C [11]: 90 % of control

SMILES: CN(C)CCCN1c2ccccc2Sc2ccc(F)cc21
- T/C (dose: 3.12 mg/kg/injection, schedule: Q04DX003 (ip), vehicle: saline): 94 % of control
- T/C (dose: 6.25 mg/kg/injection, schedule: Q04DX003 (ip), vehicle: saline): 97 % of control
- T/C (dose: 12.5 mg/kg/injection, schedule: Q04DX003 (ip), vehicle: saline): 108 % of control
- T/C (dose: 25.0 mg/kg/injection, schedule: Q04DX003 (ip), vehicle: saline): 111 % of control

SMILES: O=C1Nc2ccccc2C(=O)Nc2ccccc21
- T/C (dose: 100.0 mg/kg/injection, schedule: Q04DX003 (ip), vehicle: acetone): 98 % of control
- T/C (dose: 200.0 mg/kg/injection, schedule: Q04DX003 (ip), vehicle: acetone): 93 % of control
- T/C (dose: 400.0 mg/kg/injection, schedule: Q04DX003 (ip), vehicle: acetone): 101 % of control

SMILES: O=C(O)C1CCCCC1C(=O)Nc1ccc(Br)cc1 (stereo unspecified)
- T/C [1]: 100 % of control
- T/C [2]: 100 % of control
- T/C [3]: 118 % of control

SMILES: CCOC(=O)c1ccc(NC(=S)NC(=O)c2cccc([N+](=O)[O-])c2)cc1
- T/C (dose: 50.0 mg/kg/injection, schedule: Q01DX001 (ip), vehicle: saline with Tween-80): 88 % of control
- T/C [7]: 88 % of control
- T/C [13]: 99 % of control and 86 % of control
- T/C (dose: 100.0 mg/kg/injection, schedule: Q04DX002 (ip), vehicle: alcohol): 93 % of control
- T/C [9]: 105 % of control
- T/C [10]: 104 % of control and 87 % of control
- T/C [14]: 93 % of control and 101 % of control
- T/C (dose: 200.0 mg/kg/injection, schedule: Q04DX002 (ip), vehicle: alcohol): 90 % of control
- T/C [11]: 97 % of control
- T/C (dose: 400.0 mg/kg/injection, schedule: Q01DX001 (ip), vehicle: saline with Tween-80): 106 % of control
- T/C (dose: 400.0 mg/kg/injection, schedule: Q04DX002 (ip), vehicle: alcohol): 90 % of control
- T/C (dose: 400.0 mg/kg/injection, schedule: Q04DX003 (ip), vehicle: saline with Tween-80): 95 % of control

SMILES: O=C(OCC(OC(=O)c1ccccc1)C(OC(=O)c1ccccc1)C(COC(=O)c1ccccc1)OC(=O)c1ccccc1)c1ccccc1 (stereo unspecified)
- T/C [1]: 93 % of control
- T/C [2]: 105 % of control
- T/C [3]: 93 % of control

SMILES: O=C1C(O)=C(c2ccccc2C(=O)O)C(=O)C(O)=C1c1ccccc1C(=O)O
- T/C [12]: 101 % of control
- T/C [6]: 101 % of control
- T/C (dose: 50.0 mg/kg/injection, schedule: Q04DX002 (ip), vehicle: saline with Tween-80): 102 % of control
- T/C [8]: 96 % of control
- T/C (dose: 100.0 mg/kg/injection, schedule: Q04DX002 (ip), vehicle: saline with Tween-80): 98 % of control and 109 % of control
- T/C (dose: 200.0 mg/kg/injection, schedule: Q04DX002 (ip), vehicle: saline with Tween-80): 102 % of control and 113 % of control
- T/C (dose: 400.0 mg/kg/injection, schedule: Q04DX002 (ip), vehicle: saline with Tween-80): 98 % of control and 104 % of control

SMILES: O=C1NC(=O)C(=Cc2ccccc2[N+](=O)[O-])C(=O)N1
- T/C (dose: 100.0 mg/kg/injection, schedule: Q01DX001 (ip), vehicle: carboxymethylcellulose (CMC)): 93 % of control
- T/C [15]: 91 % of control
- T/C [16]: 87 % of control

SMILES: Cc1nn(-c2ccccc2)c(N)c1C#N
- T/C (dose: 25.0 mg/kg/injection, schedule: Q01DX009 (ip), vehicle: saline): 100 % of control
- T/C (dose: 50.0 mg/kg/injection, schedule: Q01DX009 (ip), vehicle: saline): 97 % of control
- T/C (dose: 75.0 mg/kg/injection, schedule: Q01DX009 (ip), vehicle: saline): 98 % of control
- T/C [13]: 103 % of control and 121 % of control
- T/C (dose: 150.0 mg/kg/injection, schedule: Q01DX009 (ip), vehicle: saline): 103 % of control
- T/C [14]: 106 % of control

SMILES: O=C1CCN(CCCN2CCC(=O)N(Cc3ccccc3)C2=S)C(=S)N1Cc1ccccc1
- T/C (dose: 100.0 mg/kg/injection, schedule: Q04DX002 (ip), vehicle: DMSO): 87 % of control
- T/C (dose: 200.0 mg/kg/injection, schedule: Q04DX002 (ip), vehicle: DMSO): 104 % of control
- T/C (dose: 400.0 mg/kg/injection, schedule: Q04DX002 (ip), vehicle: DMSO): 101 % of control

SMILES: Cc1ccc2nc(NC(=O)N(CCCl)N=O)sc2c1
- T/C (dose: 53.0 mg/kg/injection, schedule: Q01DX009 (ip), vehicle: carboxymethylcellulose (CMC)): 103 % of control
- T/C (dose: 80.0 mg/kg/injection, schedule: Q01DX009 (ip), vehicle: carboxymethylcellulose (CMC)): 113 % of control
- T/C (dose: 118.0 mg/kg/injection, schedule: Q01DX001 (ip), vehicle: other): 150 % of control
- T/C (dose: 118.0 mg/kg/injection, schedule: Q01DX006 (ip), vehicle: other): 193 % of control
- T/C (dose: 120.0 mg/kg/injection, schedule: Q01DX009 (ip), vehicle: carboxymethylcellulose (CMC)): 114 % of control
- T/C (dose: 180.0 mg/kg/injection, schedule: Q01DX001 (ip), vehicle: carboxymethylcellulose (CMC)): 157 % of control
- T/C [15]: 158 % of control
- T/C (dose: 266.0 mg/kg/injection, schedule: Q01DX006 (ip), vehicle: other): 98 % of control
- T/C (dose: 266.0 mg/kg/injection, schedule: Q01DX009 (ip), vehicle: carboxymethylcellulose (CMC)): 161 % of control
- T/C [16]: 170 % of control
- T/C (dose: 400.0 mg/kg/injection, schedule: Q01DX006 (ip), vehicle: other): 90 % of control

SMILES: CN1C(=O)CSC1=S
- T/C (dose: 25.0 mg/kg/injection, schedule: Q01DX009 (ip), vehicle: Klucel (hydroxypropylcellulose) (HPC)): 90 % of control
- T/C (dose: 50.0 mg/kg/injection, schedule: Q01DX009 (ip), vehicle: Klucel (hydroxypropylcellulose) (HPC)): 87 % of control
- T/C (dose: 100.0 mg/kg/injection, schedule: Q01DX009 (ip), vehicle: Klucel (hydroxypropylcellulose) (HPC)): 93 % of control

SMILES: CC(C)N(N=O)C(C)C
- T/C (dose: 50.0 mg/kg/injection, schedule: Q01DX001 (ip), vehicle: saline): 104 % of control
- T/C (dose: 100.0 mg/kg/injection, schedule: Q01DX001 (ip), vehicle: saline): 104 % of control
- T/C (dose: 200.0 mg/kg/injection, schedule: Q01DX001 (ip), vehicle: saline): 102 % of control
- T/C (dose: 400.0 mg/kg/injection, schedule: Q01DX001 (ip), vehicle: saline): 98 % of control

From PubChem BioAssay AID248 (DTP/NCI, 2004)
